In patent publication US20230398130A1, “METHODS AND COMPOSITIONS FOR DIFFERENTIATING STEM CELLS” (Massachusetts Institute of Technology, priority 2020, published 2023):

Legend:
ISC-enriched organoids [1] = test: Primary screen, 384-well 2.5-D organoid differentiation (ENR+CD, 6 days): basal lysozyme secretion (LYZ.NS); assay type: cell-based, murine; settings: for Dose.FC.LYZ.NS (log 2 fold change, basal lysozyme secretion): vs plate median
Excerpt: (§1) High-throughput screening.

ISC-enriched organoids [2] = test: Primary screen, 384-well 2.5-D organoid differentiation (ENR+CD, 6 days): carbachol-induced lysozyme secretion (LYZ.S); assay type: cell-based, murine; settings: vs plate median
Excerpt: as §1

ISC-enriched organoids [3] = test: Primary screen, 384-well 2.5-D organoid differentiation (ENR+CD, 6 days, Target Selective Inhibitor Library, vs whole-plate median): ATP (CellTiter-Glo 3D, CTG); settings: for Dose.FC.CTG (log 2 fold change, ATP): vs plate median

SMILES: CCC(=O)Nc1cccc(Oc2nc(Nc3ccc(N4CCN(C)CC4)cc3OC)ncc2Cl)c1 [WZ4003]
- Z.LYZ.NS (standard z score) (ISC-enriched organoids [1]; dose 0.08 uM): 0.644
- Dose.FC.LYZ.NS (log 2 fold change, basal lysozyme secretion) (ISC-enriched organoids [1]; dose 0.08 uM): 0.074
- Z.LYZ.NS (standard z score) (ISC-enriched organoids [1]; dose 0.40 uM): −0.359
- Dose.FC.LYZ.NS (log 2 fold change, basal lysozyme secretion) (ISC-enriched organoids [1]; dose 0.40 uM): −0.041
- Z.LYZ.NS (standard z score) (ISC-enriched organoids [1]; dose 2.00 uM): −0.151
- Dose.FC.LYZ.NS (log 2 fold change, basal lysozyme secretion) (ISC-enriched organoids [1]; dose 2.00 uM): −0.017
- Z.LYZ.NS (standard z score) (ISC-enriched organoids [1]; dose 10.00 uM): −0.850
- Dose.FC.LYZ.NS (log 2 fold change, basal lysozyme secretion) (ISC-enriched organoids [1]; dose 10.00 uM): −0.098
- Dose.FC.LYZ.S (log 2 fold change, carbachol-induced lysozyme secretion) (ISC-enriched organoids [2]; dose 0.08 uM): 0.117
- Dose.FC.LYZ.S (log 2 fold change, carbachol-induced lysozyme secretion) (ISC-enriched organoids [2]; dose 0.40 uM): −0.034
- Dose.FC.LYZ.S (log 2 fold change, carbachol-induced lysozyme secretion) (ISC-enriched organoids [2]; dose 2.00 uM): −0.035
- Dose.FC.LYZ.S (log 2 fold change, carbachol-induced lysozyme secretion) (ISC-enriched organoids [2]; dose 10.00 uM): −0.142
- Z.CTG (standard z score) (ISC-enriched organoids [3]; dose 0.08 uM): 0.896
- Dose.FC.CTG (log 2 fold change, ATP) (ISC-enriched organoids [3]; dose 0.08 uM): 0.375
- Z.CTG (standard z score) (ISC-enriched organoids [3]; dose 0.40 uM): 0.413
- Dose.FC.CTG (log 2 fold change, ATP) (ISC-enriched organoids [3]; dose 0.40 uM): 0.173
- Z.CTG (standard z score) (ISC-enriched organoids [3]; dose 2.00 uM): 0.180
- Dose.FC.CTG (log 2 fold change, ATP) (ISC-enriched organoids [3]; dose 2.00 uM): 0.076
- Z.CTG (standard z score) (ISC-enriched organoids [3]; dose 10.00 uM): −0.043
- Dose.FC.CTG (log 2 fold change, ATP) (ISC-enriched organoids [3]; dose 10.00 uM): −0.018

SMILES: Cc1cc(-c2ccc(CC(=O)Nc3ccc(-c4cccnc4)cc3)cc2)ccn1 [Wnt-C59 (C59)]
- Z.LYZ.NS (standard z score) (ISC-enriched organoids [1]; dose 0.08 uM): −1.424
- Dose.FC.LYZ.NS (log 2 fold change, basal lysozyme secretion) (ISC-enriched organoids [1]; dose 0.08 uM): −0.163
- Z.LYZ.NS (standard z score) (ISC-enriched organoids [1]; dose 0.40 uM): −1.588
- Dose.FC.LYZ.NS (log 2 fold change, basal lysozyme secretion) (ISC-enriched organoids [1]; dose 0.40 uM): −0.182
- Z.LYZ.NS (standard z score) (ISC-enriched organoids [1]; dose 2.00 uM): −1.724
- Dose.FC.LYZ.NS (log 2 fold change, basal lysozyme secretion) (ISC-enriched organoids [1]; dose 2.00 uM): −0.198
- Z.LYZ.NS (standard z score) (ISC-enriched organoids [1]; dose 10.00 uM): −1.666
- Dose.FC.LYZ.NS (log 2 fold change, basal lysozyme secretion) (ISC-enriched organoids [1]; dose 10.00 uM): −0.191
- Dose.FC.LYZ.S (log 2 fold change, carbachol-induced lysozyme secretion) (ISC-enriched organoids [2]; dose 0.08 uM): −0.242
- Dose.FC.LYZ.S (log 2 fold change, carbachol-induced lysozyme secretion) (ISC-enriched organoids [2]; dose 0.40 uM): −0.281
- Dose.FC.LYZ.S (log 2 fold change, carbachol-induced lysozyme secretion) (ISC-enriched organoids [2]; dose 2.00 uM): −0.313
- Dose.FC.LYZ.S (log 2 fold change, carbachol-induced lysozyme secretion) (ISC-enriched organoids [2]; dose 10.00 uM): −0.301
- Z.CTG (standard z score) (ISC-enriched organoids [3]; dose 0.08 uM): −1.366
- Dose.FC.CTG (log 2 fold change, ATP) (ISC-enriched organoids [3]; dose 0.08 uM): −0.572
- Z.CTG (standard z score) (ISC-enriched organoids [3]; dose 0.40 uM): −1.461
- Dose.FC.CTG (log 2 fold change, ATP) (ISC-enriched organoids [3]; dose 0.40 uM): −0.611
- Z.CTG (standard z score) (ISC-enriched organoids [3]; dose 2.00 uM): −1.498
- Dose.FC.CTG (log 2 fold change, ATP) (ISC-enriched organoids [3]; dose 2.00 uM): −0.627
- Z.CTG (standard z score) (ISC-enriched organoids [3]; dose 10.00 uM): −1.465
- Dose.FC.CTG (log 2 fold change, ATP) (ISC-enriched organoids [3]; dose 10.00 uM): −0.613

SMILES: COCC[n+]1c2c(n(Cc3cnccn3)c1C)C(=O)c1ccccc1C2=O.[Br-] [YM155 (Sepantronium Bromide)]
- Z.LYZ.NS (standard z score) (ISC-enriched organoids [1]; dose 0.08 uM): 0.995
- Dose.FC.LYZ.NS (log 2 fold change, basal lysozyme secretion) (ISC-enriched organoids [1]; dose 0.08 uM): 0.114
- Z.LYZ.NS (standard z score) (ISC-enriched organoids [1]; dose 0.40 uM): −0.266
- Dose.FC.LYZ.NS (log 2 fold change, basal lysozyme secretion) (ISC-enriched organoids [1]; dose 0.40 uM): −0.031
- Z.LYZ.NS (standard z score) (ISC-enriched organoids [1]; dose 2.00 uM): −0.714
- Dose.FC.LYZ.NS (log 2 fold change, basal lysozyme secretion) (ISC-enriched organoids [1]; dose 2.00 uM): −0.082
- Z.LYZ.NS (standard z score) (ISC-enriched organoids [1]; dose 10.00 uM): −0.839
- Dose.FC.LYZ.NS (log 2 fold change, basal lysozyme secretion) (ISC-enriched organoids [1]; dose 10.00 uM): −0.096
- Dose.FC.LYZ.S (log 2 fold change, carbachol-induced lysozyme secretion) (ISC-enriched organoids [2]; dose 0.08 uM): 0.172
- Dose.FC.LYZ.S (log 2 fold change, carbachol-induced lysozyme secretion) (ISC-enriched organoids [2]; dose 0.40 uM): −0.039
- Dose.FC.LYZ.S (log 2 fold change, carbachol-induced lysozyme secretion) (ISC-enriched organoids [2]; dose 2.00 uM): −0.137
- Dose.FC.LYZ.S (log 2 fold change, carbachol-induced lysozyme secretion) (ISC-enriched organoids [2]; dose 10.00 uM): −0.210
- Z.CTG (standard z score) (ISC-enriched organoids [3]; dose 0.08 uM): 0.531
- Dose.FC.CTG (log 2 fold change, ATP) (ISC-enriched organoids [3]; dose 0.08 uM): 0.222
- Z.CTG (standard z score) (ISC-enriched organoids [3]; dose 0.40 uM): −0.198
- Dose.FC.CTG (log 2 fold change, ATP) (ISC-enriched organoids [3]; dose 0.40 uM): −0.083
- Z.CTG (standard z score) (ISC-enriched organoids [3]; dose 2.00 uM): −1.100
- Dose.FC.CTG (log 2 fold change, ATP) (ISC-enriched organoids [3]; dose 2.00 uM): −0.460
- Z.CTG (standard z score) (ISC-enriched organoids [3]; dose 10.00 uM): −2.316
- Dose.FC.CTG (log 2 fold change, ATP) (ISC-enriched organoids [3]; dose 10.00 uM): −0.970

SMILES: C[C@H](NC(=O)Cc1cc(F)cc(F)c1)C(=O)N[C@@H]1C(=O)N(C)c2ccccc2-c2ccccc21 [YO-01027]
- Z.LYZ.NS (standard z score) (ISC-enriched organoids [1]; dose 0.08 uM): 0.443
- Dose.FC.LYZ.NS (log 2 fold change, basal lysozyme secretion) (ISC-enriched organoids [1]; dose 0.08 uM): 0.051
- Z.LYZ.NS (standard z score) (ISC-enriched organoids [1]; dose 0.40 uM): 0.739
- Dose.FC.LYZ.NS (log 2 fold change, basal lysozyme secretion) (ISC-enriched organoids [1]; dose 0.40 uM): 0.085
- Z.LYZ.NS (standard z score) (ISC-enriched organoids [1]; dose 2.00 uM): −0.699
- Dose.FC.LYZ.NS (log 2 fold change, basal lysozyme secretion) (ISC-enriched organoids [1]; dose 2.00 uM): −0.080
- Z.LYZ.NS (standard z score) (ISC-enriched organoids [1]; dose 10.00 uM): −1.369
- Dose.FC.LYZ.NS (log 2 fold change, basal lysozyme secretion) (ISC-enriched organoids [1]; dose 10.00 uM): −0.157
- Dose.FC.LYZ.S (log 2 fold change, carbachol-induced lysozyme secretion) (ISC-enriched organoids [2]; dose 0.08 uM): 0.105
- Dose.FC.LYZ.S (log 2 fold change, carbachol-induced lysozyme secretion) (ISC-enriched organoids [2]; dose 0.40 uM): −0.058
- Dose.FC.LYZ.S (log 2 fold change, carbachol-induced lysozyme secretion) (ISC-enriched organoids [2]; dose 2.00 uM): −0.020
- Dose.FC.LYZ.S (log 2 fold change, carbachol-induced lysozyme secretion) (ISC-enriched organoids [2]; dose 10.00 uM): −0.184
- Z.CTG (standard z score) (ISC-enriched organoids [3]; dose 0.08 uM): 0.528
- Dose.FC.CTG (log 2 fold change, ATP) (ISC-enriched organoids [3]; dose 0.08 uM): 0.221
- Z.CTG (standard z score) (ISC-enriched organoids [3]; dose 0.40 uM): −1.135
- Dose.FC.CTG (log 2 fold change, ATP) (ISC-enriched organoids [3]; dose 0.40 uM): −0.475
- Z.CTG (standard z score) (ISC-enriched organoids [3]; dose 2.00 uM): −1.363
- Dose.FC.CTG (log 2 fold change, ATP) (ISC-enriched organoids [3]; dose 2.00 uM): −0.571
- Z.CTG (standard z score) (ISC-enriched organoids [3]; dose 10.00 uM): −2.464
- Dose.FC.CTG (log 2 fold change, ATP) (ISC-enriched organoids [3]; dose 10.00 uM): −1.032

SMILES: Cc1cc(C)nc(NS(=O)(=O)c2ccc(NC(=S)NC(=O)COc3ccc(Br)cc3Cl)cc2)n1 [ZCL278]
- Z.LYZ.NS (standard z score) (ISC-enriched organoids [1]; dose 0.08 uM): −0.729
- Dose.FC.LYZ.NS (log 2 fold change, basal lysozyme secretion) (ISC-enriched organoids [1]; dose 0.08 uM): −0.084
- Z.LYZ.NS (standard z score) (ISC-enriched organoids [1]; dose 0.40 uM): −0.325
- Dose.FC.LYZ.NS (log 2 fold change, basal lysozyme secretion) (ISC-enriched organoids [1]; dose 0.40 uM): −0.037
- Z.LYZ.NS (standard z score) (ISC-enriched organoids [1]; dose 2.00 uM): 0.218
- Dose.FC.LYZ.NS (log 2 fold change, basal lysozyme secretion) (ISC-enriched organoids [1]; dose 2.00 uM): 0.025
- Z.LYZ.NS (standard z score) (ISC-enriched organoids [1]; dose 10.00 uM): 0.130
- Dose.FC.LYZ.NS (log 2 fold change, basal lysozyme secretion) (ISC-enriched organoids [1]; dose 10.00 uM): 0.015
- Dose.FC.LYZ.S (log 2 fold change, carbachol-induced lysozyme secretion) (ISC-enriched organoids [2]; dose 0.08 uM): −0.107
- Dose.FC.LYZ.S (log 2 fold change, carbachol-induced lysozyme secretion) (ISC-enriched organoids [2]; dose 0.40 uM): 0.077
- Dose.FC.LYZ.S (log 2 fold change, carbachol-induced lysozyme secretion) (ISC-enriched organoids [2]; dose 2.00 uM): −0.079
- Dose.FC.LYZ.S (log 2 fold change, carbachol-induced lysozyme secretion) (ISC-enriched organoids [2]; dose 10.00 uM): −0.080
- Z.CTG (standard z score) (ISC-enriched organoids [3]; dose 0.08 uM): −2.303
- Dose.FC.CTG (log 2 fold change, ATP) (ISC-enriched organoids [3]; dose 0.08 uM): −0.964
- Z.CTG (standard z score) (ISC-enriched organoids [3]; dose 0.40 uM): 0.044
- Dose.FC.CTG (log 2 fold change, ATP) (ISC-enriched organoids [3]; dose 0.40 uM): 0.018
- Z.CTG (standard z score) (ISC-enriched organoids [3]; dose 2.00 uM): −0.545
- Dose.FC.CTG (log 2 fold change, ATP) (ISC-enriched organoids [3]; dose 2.00 uM): −0.228
- Z.CTG (standard z score) (ISC-enriched organoids [3]; dose 10.00 uM): −0.247
- Dose.FC.CTG (log 2 fold change, ATP) (ISC-enriched organoids [3]; dose 10.00 uM): −0.104
